Reference: patent publication US9487794B2, “Feruloyl-CoA:monolignol transferase” (Board of Trustees of Michigan State University, priority 2010, dated 2016)

Key:
[1] = test system: feruloyl-CoA:monolignol transferase (FMT); test: Feruloyl-CoA:monolignol transferase (FMT) enzymatic assay, substrate test with UPLC detection of product; assay type: biochemical, Angelica sinensis; conditions: purified recombinant FMT; for product formed from CoA thioester as acyl donor: coniferyl alcohol as acyl acceptor (FIGS. 2, 6, 7); for FMT activity with monolignol as acyl acceptor: feruloyl-CoA as acyl donor (FIGS. 2, 4, 5)
Protocol: The feruloyl-CoA, p-coumaroyl-CoA, and caffeoyl-CoA substrates used in the FMT assay were enzymatically synthesized using the tobacco 4-coumarate-CoA-ligase (4CL) with a c-terminal HIS tag in pCRT7/CT TOPO, provided by Eran Pichersky. Following a method modified from Beuerle and Pichersky (Anal. Biochem. 302(2): 305-12 (2001)) 3.3 mg of ferulic acid, coumaric acid or caffeic acid, 2 mg coenzyme A, and 6.9 mg ATP were added to 50 mM Tris-hydrochloride pH 8 and 2.5 mM magnesium chloride in a final volume of 10 ml. The reaction was started by adding 0.25 mg 4CL, protein purified as described by the method of Beurerle and Pichershy. After a five-hour incubation at room temperature, additional 6.9 mg ATP, 2 mg coenzyme A, and 0.25 mg purified 4CL were added and the reaction was incubated overnight. The CoA esters were purified on an SPE cartridge as described in Beuerle and Pichersky (2001).
(§1) The FMT activity assay contained 100 mM MOPS pH 6.8, 1 mM dithiothreitol (DTT), 1 mM feruloyl-CoA, 1 mM coniferyl alcohol, 3.9 μg of purified FMT protein and deionized water to a volume of 50 μL. After a 30-minute incubation, 1 μL of 10 M hydrochloric acid was added to stop the reaction. Because the product synthesized in the reaction, coniferyl ferulate (CAFA), is insoluble, 50 μL of methanol was added to solubilize the CAFA. Prior to UPLC, protein and insoluble material were removed by filtering through an Amicon Ultracel 10K membrane filter (Millipore). The flow-through was analyzed using an Acquity Ultra Performance LC with an Acquity UPLC BEH C18 1.7 μm 2.1×100 mm column and the Acquity Console and Empower 2 Software, all from Waters Corporation. The solvents used in this method were solvent A, 0.1% trifluoroacetic acid, and solvent B, 100% acetonitrile. Samples were analyzed using the following gradient conditions, 13% B, for 5 minutes, 1 minute linear gradient to 42% B, held for 4 minutes, 1 minute linear gradient to 100% B, held for 1 minutes and 3 minutes at 13% B with a flow rate of 0.3 ml/minute. This method was then used to analyze a 10 μL injection of each assay reaction; standards for each of the substrates along with chemically synthesized CAFA were used to determine retention times for each compound.
Purified recombinant enzyme was assayed for FMT activity using a reaction mixture containing 2 mM coniferyl alcohol, […], 100 mM HEPES pH 7.4 and 1 mM DTT. The second most abundant BAHD acyltransferase gene when incubated with Coniferyl alcohol and feruloyl-CoA produced a compound with the retention time of authentic coniferyl ferulate (CAFA) (FIG. 2). […] The addition of methanol to 50% after stopping the enzyme with acid was required to analyze the product by UPLC. The insolubility of the product made partial purification easy as the product was separated from the substrates by centrifugation.
This partial purified product was analyzed by NMR. The identity of the product as CAFA was confirmed by ^1H-NMR (FIG. 3). The enzyme was tested with p-coumaryl alcohol (FIG. 4) and sinapyl alcohol (FIG. 5) in addition to coniferyl alcohol (FIG. 2). The enzyme is active with all three monolignols, i.e., p-coumaryl alcohol, coniferyl alcohol and sinapyl alcohol. The enzyme was tested with p-coumaroyl-CoA (FIG. 6) and caffeoyl-CoA (FIG. 7) as well as feruloyl-CoA (FIG. 2).

[2] = Solubility of the enzyme product in the aqueous assay mixture; assay type: physicochemical; conditions: FMT reaction product; methanol to 50% needed to solubilize
Protocol: as §1, with “compound. […]” for “compound.”

Structure (SMILES) | product formed from CoA thioester as acyl donor [1] | FMT activity with monolignol as acyl acceptor [1] | other results
CC(C)(COP(=O)(O)OP(=O)(O)OC[C@H]1O[C@@H](n2cnc3c(N)ncnc32)[C@H](O)[C@@H]1OP(=O)(O)O)[C@@H](O)C(=O)NCCC(=O)NCCSC(=O)/C=C/c1ccc(O)c(O)c1 [caffeoyl-CoA] | very little product |  | 
COc1cc(/C=C/C(=O)SCCNC(=O)CCNC(=O)[C@H](O)C(C)(C)COP(=O)(O)OP(=O)(O)OC[C@H]2O[C@@H](n3cnc4c(N)ncnc43)[C@H](O)[C@@H]2OP(=O)(O)O)ccc1O [feruloyl-CoA] | substantial product |  | 
COc1cc(/C=C/CO)ccc1O [coniferyl alcohol] |  | active | 
CC(C)(COP(=O)(O)OP(=O)(O)OC[C@H]1O[C@@H](n2cnc3c(N)ncnc32)[C@H](O)[C@@H]1OP(=O)(O)O)[C@@H](O)C(=O)NCCC(=O)NCCSC(=O)/C=C/c1ccc(O)cc1 [p-coumaroyl-CoA] | very little product |  | 
COc1cc(/C=C/COC(=O)/C=C/c2ccc(O)c(OC)c2)ccc1O [coniferyl ferulate] |  |  | solubility in water [2]: mostly insoluble in water

The next lines start with results.

product formed from CoA thioester as acyl donor [1] | FMT activity with monolignol as acyl acceptor [1] | Structure (SMILES) | other results
 | active | COc1cc(/C=C/CO)cc(OC)c1O [sinapyl alcohol] | 
 | active | OC/C=C/c1ccc(O)cc1 [p-coumaryl alcohol] | 
